Results from PubChem BioAssay AID330 (DTP/NCI, 2004).
“And” between values parts separate entries of the source, which are not always exact repeats. Equal entries are not always repeated. Inconclusive results and toxic doses are left out.

System: P388 leukemia ip, CD2F1 mice, survival T/C
Assay: NCI In Vivo Anticancer Drug Screen. Data for tumor model P388 Leukemia (intraperitoneal) in CD2F1 (CDF1) mice
Conditions: endpoint: median survival time, higher = longer survival
Method in brief: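 Mice carrying the transplanted tumor received test compound or vehicle. Survival was recorded in each group, and the value is the treated-group measurement divided by that of the vehicle-treated control group.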

[1] = dose: 100.0 mg/kg/injection, schedule: Q01DX009 (ip), vehicle: saline
[2] = dose: 50.0 mg/kg/injection, schedule: Q01DX009 (ip), vehicle: Klucel (hydroxypropylcellulose) (HPC)
[3] = dose: 100.0 mg/kg/injection, schedule: Q01DX009 (ip), vehicle: Klucel (hydroxypropylcellulose) (HPC)
[4] = dose: 200.0 mg/kg/injection, schedule: Q01DX009 (ip), vehicle: Klucel (hydroxypropylcellulose) (HPC)
[5] = dose: 12.5 mg/kg/injection, schedule: Q01DX009 (ip), vehicle: saline
[6] = dose: 100.0 mg/kg/injection, schedule: Q04DX002 (ip), vehicle: saline with Tween-80
[7] = dose: 200.0 mg/kg/injection, schedule: Q04DX002 (ip), vehicle: saline with Tween-80
[8] = dose: 400.0 mg/kg/injection, schedule: Q04DX002 (ip), vehicle: saline with Tween-80

CC(C)=CC(=O)OC1C2C(C)=CC(=O)C(O)C2(C)C2C3(O)OCC24C(CC(=O)OC14)C(C)C3O (centres undefined)
T/C (dose: 0.5 mg/kg/injection, schedule: Q01DX009 (ip), vehicle: distilled water + Tween-80): 161 % of control | T/C (dose: 1.0 mg/kg/injection, schedule: Q01DX009 (ip), vehicle: distilled water + Tween-80): 169 % of control and 198 % of control | T/C (dose: 2.0 mg/kg/injection, schedule: Q01DX009 (ip), vehicle: distilled water + Tween-80): 180 % of control and 191 % of control

CCCC(=O)Nc1cc([N+](=O)[O-])c([N+](=O)[O-])cc1OC
T/C (dose: 60.0 mg/kg/injection, schedule: Q01DX005 (ip), vehicle: Klucel (hydroxypropylcellulose) (HPC)): 94 % of control | T/C (dose: 120.0 mg/kg/injection, schedule: Q01DX005 (ip), vehicle: Klucel (hydroxypropylcellulose) (HPC)): 91 % of control | T/C (dose: 240.0 mg/kg/injection, schedule: Q01DX005 (ip), vehicle: Klucel (hydroxypropylcellulose) (HPC)): 94 % of control

O=C1c2ccccc2C(=O)N1Cc1ccccc1[N+](=O)[O-]
T/C (dose: 6.25 mg/kg/injection, schedule: Q01DX009 (ip), vehicle: saline with Tween-80): 95 % of control | T/C (dose: 12.5 mg/kg/injection, schedule: Q01DX009 (ip), vehicle: saline with Tween-80): 88 % of control | T/C (dose: 25.0 mg/kg/injection, schedule: Q01DX009 (ip), vehicle: saline with Tween-80): 89 % of control | T/C [1]: 98 % of control | T/C (dose: 200.0 mg/kg/injection, schedule: Q01DX009 (ip), vehicle: saline): 102 % of control

CCO[Si](CCCCl)(OCC)OCC
T/C [2]: 100 % of control | T/C [3]: 106 % of control | T/C [4]: 118 % of control

CC(=O)NCCc1nc(-c2nc(C(=O)NCCCN)cs2)cs1
T/C (dose: 12.5 mg/kg/injection, schedule: Q01DX009 (ip), vehicle: water): 93 % of control | T/C (dose: 25.0 mg/kg/injection, schedule: Q01DX009 (ip), vehicle: water): 98 % of control | T/C (dose: 50.0 mg/kg/injection, schedule: Q01DX009 (ip), vehicle: water): 108 % of control | T/C (dose: 100.0 mg/kg/injection, schedule: Q01DX009 (ip), vehicle: water): 99 % of control | T/C (dose: 200.0 mg/kg/injection, schedule: Q01DX009 (ip), vehicle: water): 98 % of control

CCOC(=O)c1c(Br)c2c3ccccc3c3ccccc3n2c1C
T/C (dose: 60.0 mg/kg/injection, schedule: Q01DX005 (ip), vehicle: saline with Tween-80): 100 % of control | T/C (dose: 120.0 mg/kg/injection, schedule: Q01DX005 (ip), vehicle: saline with Tween-80): 111 % of control | T/C (dose: 240.0 mg/kg/injection, schedule: Q01DX005 (ip), vehicle: saline with Tween-80): 100 % of control

CCCCC(CC)C(=O)OCCNC(=O)C(C)OC(=O)C(CC)CCCC (centres undefined)
T/C (dose: 25.0 mg/kg/injection, schedule: Q01DX005 (ip), vehicle: Klucel (hydroxypropylcellulose) (HPC)): 105 % of control | T/C (dose: 50.0 mg/kg/injection, schedule: Q01DX005 (ip), vehicle: Klucel (hydroxypropylcellulose) (HPC)): 102 % of control | T/C (dose: 100.0 mg/kg/injection, schedule: Q01DX005 (ip), vehicle: Klucel (hydroxypropylcellulose) (HPC)): 95 % of control | T/C (dose: 200.0 mg/kg/injection, schedule: Q01DX005 (ip), vehicle: Klucel (hydroxypropylcellulose) (HPC)): 105 % of control

CCOC(=O)CN1C(=S)CSC1=S
T/C [2]: 106 % of control | T/C [3]: 98 % of control | T/C [4]: 107 % of control and 109 % of control

CCCCCCCCCCOC(=O)CC(C)=O.CCCCCCCCCCOC(=O)CC(C)=O.[Ni+2]
T/C [5]: 98 % of control | T/C (dose: 25.0 mg/kg/injection, schedule: Q01DX009 (ip), vehicle: saline): 100 % of control | T/C (dose: 50.0 mg/kg/injection, schedule: Q01DX009 (ip), vehicle: saline): 98 % of control and 91 % of control | T/C [1]: 86 % of control

Cc1ccc(S(=O)(=O)C2CC(=O)N(c3ccc(F)c(Cl)c3)C2=O)cc1 (centres undefined)
T/C [6]: 94 % of control | T/C [7]: 94 % of control | T/C [8]: 96 % of control

COc1ccc(CN(CCCCCCN(Cc2ccc(OC)cc2)CC23CC4CC(CC(C4)C2)C3)CC23CC4CC(CC(C4)C2)C3)cc1
T/C [6]: 98 % of control | T/C [7]: 94 % of control | T/C [8]: 94 % of control

COC(=O)C1c2cc3c(c(O)c2CCC1(C)O)C(=O)c1c(O)cc2c(c1C3=O)OC1OC2(C)C(O)C(N(C)C)C1O (centres undefined)
T/C (dose: 6.25 mg/kg/injection, schedule: Q01DX009 (ip), vehicle: saline): 117 % of control | T/C [5]: 120 % of control | T/C (dose: 25.0 mg/kg/injection, schedule: Q04DX003 (ip), vehicle: saline): 115 % of control | T/C (dose: 50.0 mg/kg/injection, schedule: Q04DX003 (ip), vehicle: saline): 114 % of control | T/C (dose: 100.0 mg/kg/injection, schedule: Q04DX003 (ip), vehicle: saline): 115 % of control
